# Source: ChEMBL document CHEMBL1141672, “Novel bradykinin-1 antagonists containing a (1,2,3,4-tetrahydro-isoquinolin-1-yl)acetic acid scaffold” (Eur J Med Chem, 2008)
# Experiments:
# [1] = target: T1, B1 bradykinin receptor (Homo sapiens) (UniProt P46663); experiment: Antagonist activity against human recombinant bradykinin B1 receptor expressed in CHO cells assessed as inhibition of [Lys-des-Arg9]bradykinin-induced cytoplasmic calcium release at 5 uM by fluorimetry; type: functional, cell-based
# T1 sequence (whole entry): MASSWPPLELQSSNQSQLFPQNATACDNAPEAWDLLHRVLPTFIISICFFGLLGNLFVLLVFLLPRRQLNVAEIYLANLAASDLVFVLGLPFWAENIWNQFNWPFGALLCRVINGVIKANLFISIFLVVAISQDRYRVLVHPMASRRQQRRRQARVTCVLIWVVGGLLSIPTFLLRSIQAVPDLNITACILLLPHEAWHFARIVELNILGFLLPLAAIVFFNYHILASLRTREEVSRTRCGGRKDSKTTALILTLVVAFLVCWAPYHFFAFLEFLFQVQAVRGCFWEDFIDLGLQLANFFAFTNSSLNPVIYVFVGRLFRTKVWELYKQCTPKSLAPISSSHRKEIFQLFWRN
# B1 bradykinin receptor = target: T2, B1 bradykinin receptor (Homo sapiens, UniProt P46663); experiment: Displacement of [3H]Lys-bradykinin from human recombinant bradykinin B1 receptor expressed in CHO cells by scintillation counting; type: cell-based
# T2 sequence (P46663 whole entry): T1 sequence (whole entry)
Structure (SMILES),inhibition [1],Ki (B1 bradykinin receptor)
COc1cc2c(cc1OC)C(CC(=O)NCCc1ccc(C3=NCCN3)cc1)N(S(=O)(=O)c1ccc(C)cc1)CC2 (racemic),85.7%,2000 nM
Cc1ccc(S(=O)(=O)N2CCc3ccccc3C2CC(=O)NCCCCNC(=N)N)cc1 (racemic),44.9%,
Cc1ccc(S(=O)(=O)N2CCc3ccccc3C2CC(=O)NCCCCN)cc1 (racemic),15.9%,
Cc1ccc(S(=O)(=O)N2CCc3ccccc3C2CC(=O)NCCCCCCN)cc1 (racemic),16.3%,
Cc1ccc(S(=O)(=O)N2CCc3ccccc3C2CC(=O)NC2CCCCCC2)cc1 (racemic),37%,
COc1cc2c(cc1OC)C(CC(=O)NCCCCNC(=N)N)N(S(=O)(=O)c1ccc(C)cc1)CC2 (racemic),19%,
Cc1ccc(S(=O)(=O)N2CCc3ccccc3C2CC(=O)NCCc2ccc(C3=NCCN3)cc2)cc1 (racemic),99%,67 nM
COc1cc2c(cc1OC)C(CC(=O)NC1CCCCCC1)N(S(=O)(=O)c1ccc(C)cc1)CC2 (racemic),9.3%,
COc1cc2c(cc1OC)C(CC(=O)NCCCCN)N(S(=O)(=O)c1ccc(C)cc1)CC2 (racemic),15.3%,
COc1cc2c(cc1OC)C(CC(=O)NCCCCCCN)N(S(=O)(=O)c1ccc(C)cc1)CC2 (racemic),10.9%,
